Results published in patent US8952033B2, “4-anilinofuro[2,3-b]quinoline derivatives, their preparation processes, and pharmaceutical compositions comprising the same” (Kaohsiung Medical University, priority 2011, dated 2015).

What was measured:
[1] = system: PC-3 (human prostate cancer cell); assay: Preferential antiproliferative activity, PC-3; format: cell-based
Experimental: (§1) Determination of GI50 of compounds 13a, 13c, 14a, 14c, 15a, 16a was conducted substantially according to the method as described in the preceding section A entitled “Evaluation of antiproliferative activity”, except that the normal cell line MRC-5 was also utilized, and that camptothecin and daunorubicin were tested instead of compounds 1, 2, 3. The concentration of the respective test compound, which can reduce absorbance by 50% (compared with DMSO), is regarded as GI50, and can be determined via dose-response curves. Determination of GI50 was conducted thrice for each test compound. GI50 is expressed as mean±SD.
(§2) SI stands for selectivity index and was calculated by substituting GI50 into the following formula: D=E/F (2) where • D=SI • E=GI50 of the respective test compound for cells of the normal cell line • F=GI50 of the respective test compound for cells of the cancer cell line The experimental results are summarized in Table 4. […]

[2] = system: BT483 (human breast carcinoma cell); assay: Preferential antiproliferative activity, BT483; format: cell-based
Experimental: as §1, §2

NCI-H460 cells = assay: In vivo inhibition of lung cancer cells, NCI-H460 tumor in nude mice; set-up: species or system Balb/C athymic nude mice; conditions: for Survival rate: Day 80 (control all dead)
Experimental: 10^6 NCI-H460 cells were mixed evenly with a proper amount of Matrigel (BD Biosciences). The resultant mixture was injected subcutaneously into each of the nude mice on a dorsal flank close to an upper portion of a hind leg.
The nude mice bearing a tumor were randomly divided into two groups. The first group (n=14) of the nude mice was used to evaluate the effect of compound 13a after intraperitoneal injection, and was further divided into three subgroups including 10 mg/kg group (n=4), 20 mg/kg group (n=6), and a control group (n=4). Compound 13a (in DMSO/Tween 80/PBS (1/1/8, v/v/v)) was administered to the nude mice in 10 mg/kg group and 20 mg/kg group respectively at a dose of 10 mg/kg and a dose of 20 mg/kg via intraperitoneal injection, and 5% dextrose was administered to the nude mice in the control group at the same dosing volume as compound 13a via intraperitoneal injection.
The second group (n=28) of the nude mice was used to evaluate the effect of compound 13a after oral administration, and was further divided into three subgroups including 60 mg/kg group (n=10), 120 mg/kg group (n=10), and a control group (n=8). Compound 13a (in a normal saline solution containing 1% DMSO, 1.4% Tween 80, and 1% sodium carboxymethyl cellulose (Sigma), and serving as a vehicle) was administered to the nude mice in 60 mg/kg group and 120 mg/kg group respectively at a dose of 60 mg/kg and a dose of 120 mg/kg via tube feeding (0.22-0.26 mL of the mixture of compound 13a and the vehicle/nude mouse), and the vehicle was administered to the mice in the control group at a dose of 10 mL/kg via tube feeding.
Administration was conducted once daily for 6 consecutive days. For the first group of the nude mice, the size of the tumor on the dorsal flank was measured with calipers every 9 days for 100 consecutive days. For the second group of the nude mice, the survival rate was calculated every 10 days starting on Day 1 (i.e., the day of the […] administration) for 80 consecutive days, and the size of the tumor on the dorsal flank was measured with the calipers every 3 days for 32 consecutive days.

[3] = system: SAS (human oral squamous-cell carcinoma cell); assay: Preferential antiproliferative activity, SAS; format: cell-based
Experimental: as §1, §2

[4] = system: MRC-5 (human lung fibroblast cell); assay: GI50 determination on normal cell line MRC-5; format: cell-based; conditions: MRC5, normal cell line, mean±SD, read-out: GI50 MRC-5
Experimental: (§3) Antiproliferative activities of the compounds of this invention were evaluated substantially according to the method as described in Tseng, C. […] The cells were treated with the test compounds, i.e., the compounds of this invention (in dimethylsulfoxide (DMSO)), or DMSO for 48 hours.
(§4) Before and after the treatment with the test compounds or DMSO, 3-(4,5-dimethylthiazol-2-yl)-2,5-diphenyltetrazolium bromide (MTT, 2 mg/mL, 100 μL) was added to each of the cultures, followed by cultivation for 2 hours. The resultant formazan was dissolved by the addition of DMSO. Absorbance at 570 nm (OD570) was measured using a microtiter plate reader (Dynex MRX-II).
(§5) Determination of GI50 was conducted thrice for each test compound. GI50 is expressed as mean±SD.

[5] = system: CL1-5 (metastatic lung adenocarcinoma cell); assay: Preferential antiproliferative activity, CL1-5; format: cell-based
Experimental: as §1, §2

[6] = system: SF-268 (central nervous system carcinoma cell); assay: MTT antiproliferative assay (cell growth %, GI50), SF-268; format: cell-based
Experimental: as §3, §4, §5

NCI-H611 = assay: Preferential antiproliferative activity, NCI-H611; format: cell-based
Experimental: as §1, §2

[7] = system: NCI-H460 (non-small cell lung carcinoma cell); assay: MTT antiproliferative assay (cell growth %, GI50), NCI-H460; format: cell-based
How it was run: (§6)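 Cells exposed to compounds in DMSO or vehicle for 48 hours; MTT (2 mg/mL) added before and after treatment for 2 hours, formazan dissolved in DMSO and OD570 read. GI50 from three determinations, reported as mean±SD.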

[8] = system: MCF-7 (breast cancer cell); assay: MTT antiproliferative assay (cell growth %, GI50), MCF-7; format: cell-based
How it was run: as §6

[9] = system: AGS (human stomach adenocarcinoma cell); assay: Preferential antiproliferative activity, AGS; format: cell-based
Experimental: as §1, §2

C/C(=N\OCCN)c1ccc(Nc2c3ccccc3nc3occc23)cc1 [Compound 13a, (E)-1-(4-(furo[2,3-b]quinolin-4-ylamino)phenyl)ethanone O-2-aminoethyl oxime]
GI50 ([1]; Homo sapiens, mean±SD): 11.8 ± 0.49 µM
SI PC-3 ([1]; versus MRC-5): 3.62
GI50 ([2]; Homo sapiens, BT-483, mean±SD): 10.2 ± 0.9 µM
SI BT483 ([2]; versus MRC-5): 4.22
Size of the tumor (NCI-H460 cells; intraperitoneal injection, 10 mg/kg and 20 mg/kg once daily for 6 days, versus control): generally grew more slowly with time
Size of the tumor (NCI-H460 cells; oral administration, 60 mg/kg and 120 mg/kg once daily for 6 days, versus control): generally grew more slowly with time
Survival rate (NCI-H460 cells; oral administration, 60 mg/kg group): 50%
Survival rate (NCI-H460 cells; oral administration, 120 mg/kg group): 50%
Size of the tumor (NCI-H460 cells; oral administration, 120 mg/kg once daily for 6 days): diminished in size after Day 16
GI50 ([3]; Homo sapiens, mean±SD): 15.5 ± 2.6 µM
SI SAS ([3]; versus MRC-5): 2.76
GI50 [4]: 42.9 ± 1.05 µM
GI50 ([5]; CL1-5, result based on a single trial): 5.18 µM
SI CL1-5 ([5]; versus MRC-5): 8.27
SI SF-268 ([6]; GI50 MRC-5 / GI50 SF-268): 6.84
GI50 ([6]; Homo sapiens, SF-268, mean±SD, read-out: GI50 SF-268): 6.26 ± 1.02 µM
GI50 (NCI-H611; mean±SD): 0.98 ± 0.27 µM
SI NCI-H611 (NCI-H611; versus MRC-5): 43.72
SI NCI-H460 ([7]; GI50 MRC-5 / GI50 NCI-H460): 68.02
activity at 4000 µg/mL ([7]; Homo sapiens, NCI-H460, 4 mg/ml, 48 hours, MTT): 33%
activity at 20000 µg/mL ([7]; Homo sapiens, NCI-H460, 20 mg/ml, 48 hours, MTT): -1%
GI50 ([7]; Homo sapiens, NCI-H460, mean±SD, read-out: GI50 NCI-H460): 0.63 ± 0.03 µM
SI MCF-7 ([8]; GI50 MRC-5 / GI50 MCF-7): 4.59
activity at 4000 µg/mL ([8]; Homo sapiens, MCF7, 4 mg/ml, 48 hours, MTT): 66%
activity at 20000 µg/mL ([8]; Homo sapiens, MCF7, 20 mg/ml, 48 hours, MTT): -1%
GI50 ([8]; Homo sapiens, MCF7, mean±SD, read-out: GI50 MCF-7): 9.34 ± 0.92 µM
GI50 ([9]; Homo sapiens, mean±SD): 13.77 ± 0.04 µM
SI AGS ([9]; versus MRC-5): 3.09
